From ChEMBL document CHEMBL1201862, “PubChem BioAssay data set” (2004) come the findings set out here.

Some test systems named below: ACHN; HCT-15; HOP-92; Hs-578T; IGROV-1; KM12; LOX IMVI; NCI/ADR-RES; OVCAR-4; OVCAR-8; RPMI-8226; SK-MEL-28; SK-MEL-2; SK-OV-3; SN12C; SNB-19; SR; U-251; UACC-62; UO-31.
Holding throughout (assay): NCI-60 cell line screen, 48 h

Molecules are shown by their SMILES.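 Grown in 96-well plates, cells were treated for 48 hours with each compound at five concentrations. Insufficient inhibition: endpoint recorded as highest concentration tested. GI50 marks 50% less growth.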 Active and inactive are the calls of the source. No stated cut-off is given here; in the data, active = GI50 up to about 1.1 µM and inactive = higher.

As for `CCCCCCCCCCCC(=O)NCc1ccc(OC(=O)CCCCCCCCCCC)c(OC)c1`, the GI50 with ACHN was > 100 µM (inactive); in the test with HCT-15, over 100 µM; in the test with HOP-92 it was > 100 µM (inactive); in the test with Hs-578T, 56.4 µM (inactive); in the test on IGROV-1 it was 4.21 µM (inactive); in the test with KM12 it was 24.3 µM (inactive). Moreover, the GI50 in the test on LOX IMVI was 5.42 µM (inactive); with NCI/ADR-RES it was > 100 µM (inactive); in the test on OVCAR-4, 34.2 µM (inactive); in the test on OVCAR-8, 67.9 µM (inactive); with RPMI-8226, 33.5 µM (inactive); with SK-MEL-28 it was > 81.7 µM (inactive). Further, the GI50 is > 82.8 µM (inactive) in the test with SK-MEL-2; > 100 µM (inactive) with SK-OV-3; > 88.3 µM (inactive) in the test with SN12C; > 100 µM (inactive) in the test with SNB-19; 11.1 µM (inactive) in the test with SR; > 100 µM (inactive) in the test with U-251. In addition, the GI50 was > 96.4 µM (inactive) in the test on UACC-62 and > 70 µM (inactive) in the test with UO-31.

For `O=[N+]([O-])c1ccc2c3c1[C@@H]1O[C@@H]1c1cccc(c1-3)[C@@H]1O[C@H]21`, the GI50 in the test on ACHN is 1.94 µM (inactive); in the test with HCT-15 it was 2.57 µM; with HOP-92, 9.46 µM (inactive); in the test on Hs-578T, 3.1 µM (inactive); in the test on IGROV-1, 1.24 µM (inactive); in the test on KM12 it was 2.72 µM (inactive). The GI50 in the test on LOX IMVI is 1.27 µM (inactive); with NCI/ADR-RES it was 4.91 µM (inactive); in the test with OVCAR-4, 3.35 µM (inactive); in the test with OVCAR-8, 2.04 µM (inactive); in the test on RPMI-8226, 1.88 µM (inactive); in the test with SK-MEL-28, 3.1 µM (inactive). For the same compound, the GI50 in the test on SK-MEL-2 is 6.14 µM (inactive); in the test on SK-OV-3 it was 17.4 µM (inactive); in the test with SN12C, 2.71 µM (inactive); with SNB-19 it was 14.6 µM (inactive); in the test on SR, 4.21 µM (inactive); with U-251, 4.08 µM (inactive). Also, the results for the GI50 in the test on UACC-62 and in the test on UO-31 were 7.14 µM (inactive) and 2.07 µM (inactive), respectively.
